Values of other authors as cited in US12629339B2, “Lithium salt extended-release formulations; methods of making; and methods of use thereof” (Almatica Pharma LLC, priority 2023, dated 2026).

Conditions: serum lithium level

## [Li] [lithium]
  Toxic concentration of lithium: ≥ 1.5 mEq/L
